Test results reported in US8551723B2, “Tyrosine kinase-inducible domains” (University of Delaware, priority 2010, dated 2013).

Key:
[1] = Dissociation constant determination of peptide-Tb^3+ complexes by Tb^3+ luminescence titration; type: binding
Experimental: (§1) All experiments were conducted on a Photon Technology International fluorescence spectrometer model QM-3/2003 with a CW source and a Hamamatsu R928PMT using 10 nm excitation and emission slit widths. A 495 nm highpass filter (model 495FG03-25 AM-53074; Andover Corporation) was used on the emission monochromator. Spectra were acquired at room temperature with a scan rate of 1 nm per second. In dissociation constant determinations, the observed luminescence (photon counts s^−1) was not background-corrected and represents the raw fluorescence data. In the presence of buffer only (no peptide, no metal), the luminescence at 544 nm is similar to the luminescence observed in the presence of peptide at the limit of low concentrations of Tb^3+ (approximately 1.8×10^5 photon counts s^−1). Spectral data (FIGS. 3a, […]) represent the average of at least three independent trials and correspond to the averaged spectra that yielded the data points at the given Tb^3+ concentrations in the dissociation constant determination plots. Spectral data in the manuscript were background-corrected. Peptide solutions were prepared by the dilution of peptide stock solutions into buffer containing 5 mM HEPES (pH 7.8) and 100 mM NaCl (final concentrations). Spectra were acquired in 10 mm quartz fluorescence cells (Starna). Tb^3+ titrations were conducted by dilution of a Tb^3+ solution into a peptide solution. All TbCl3 solutions were standardized by titration with a standard solution of EDTA (1 mM) in the presence of xylenol orange indicator (10 μM) and sodium acetate buffer (pH 6.0, 10 mM). EDTA (1 mM) was added to 500 μL of a 1 mM Tb^3+ solution diluted from a 10 mM stock until the end point was reached; Tb^3+ concentration was determined based on 1:1 binding. Each individual emission spectrum represents an independently prepared solution of peptide and metal. The Tb^3+ emission band at 544 nm was used to evaluate metal binding.
To determine dissociation constants for Tb^3+-peptide complexes, Tb^3+ titrations were conducted in solutions of 5 mM HEPES (pH 7.8) and 100 mM NaCl. Each data point represents an independently prepared solution of peptide and metal. Observed luminescence (photon counts s^−1) at the emission maximum of 544 nm were plotted against Tb^3+ concentration to calculate the final Kd. Data points indicate the average of at least three independent titrations. Error bars indicate standard error. […] The quadratic equation solution to the dissociation constant (equation 1) was employed to generate an accurate solution to the binding equilibrium under conditions when the dissociation constant, peptide concentration, and metal concentration may be similar. For phosphorylated pKID-pTyr11, the dissociation constant was also measured in the presence of 2 mM Mg^2+ and 100 μM Ca^2+ to study the effect of these metals on Tb^3+-peptide complex formation.

[2] = Terbium luminescence spectra of non-phosphorylated versus phosphorylated peptides; settings: 10 μM peptide, 10 mM HEPES (pH 7.8), 100 mM NaCl, excitation 280 nm
Experimental: FIGS. 3a, 3e and 3f show the luminescence spectra of 10 μM non-phosphorylated (red) and phosphorylated (blue) (a) pKID-pTyr11, (e) pKID-pTyr15a, and (f) pKID-pTyr15b, in the presence of (a, f) 20 μM Tb^3+ or (e) 80 μM Tb^3+. Experiments were conducted in water with 10 mM HEPES (pH 7.8) and 100 mM NaCl with excitation at 280 nm. […] The fold luminescence differentiation between non-phosphorylated and phosphorylated peptides depends on the relative Tb^3+ affinities of the peptides and on the Tb^3+ concentration. FIGS. 3b, 3c, and 3d show the TOCSY spectra of phosphorylated pKID-pTyr11 in the absence (red) and presence (blue) of La^3+ indicating metal-induced peptide folding: (b) H^N—Hα region; (c) H^N—Hβ region; (d) aromatic region.
as §1, with “Peptide solutions were prepared by the dilution of peptide stock solutions into buffer containing 5 mM HEPES (pH 7.8) and 100 mM NaCl (final concentrations).” left out, “Tb^3+ titrations were conducted by dilution of a Tb^3+ solution into a peptide solution. All TbCl3 solutions were standardized by titration with a standard solution of EDTA (1 mM) in the presence of xylenol orange indicator (10 μM) and sodium acetate buffer (pH 6.0, 10 mM).” left out, “Each individual emission spectrum represents an independently prepared solution of peptide and metal. The Tb^3+ emission band at 544 nm was used to evaluate metal binding.” left out

[3] = 10 μM peptide, footnote a: calculated by defining maximum luminescence as equal to that of the phosphorylated peptide-Tb^3+ complex (no saturation)
[4] = peptide-Tb^3+ complex, 10 μM peptide, 5 mM HEPES (pH 7.8), 100 mM NaCl

Which Kd [1, 3] does the source give for “Ac-DKDGDGWISPAAAKYAK-NH2 [non-phosphorylated pKID-pTyr15b]” here?
The Kd was 1930 µM.

For “DKNADGWIDAAEK [EF Hand-E12, EF Hand consensus peptide with Glu at residue 12, reference compound]”, which Kd [1, 4] is on record?
The Kd was 88 ± 8 µM.

For “Ac-DKNADGWIDAAAAKYAK-NH2 [non-phosphorylated pKID-pTyr15a]”, which Kd [1, 3] is on record?
The Kd was 3200 µM.

For “Ac-DKDGDGWISPAAAKpYAK-NH2 [phosphorylated pKID-pTyr15b]”, which “fold greater luminescence of phosphorylated than non-phosphorylated peptide” value ([2]; 20 μM Tb^3+) is on record?
The value was 10.1 fold.

And the Kd [1, 4]?
Its Kd is 47 ± 5 µM.

With “DKNADGWIDAEAK [EF Control-E11, control peptide with Glu at residue 11, reference compound]” as the substance, how does the Kd [1, 4] read?
Its Kd is 1820 ± 140 µM.

Which “fold greater luminescence of phosphorylated than non-phosphorylated peptide” value ([2]; 20 μM Tb^3+) does the source give for “Ac-DKNADGWIDApYAK-NH2 [phosphorylated pKID-pTyr11, pY indicates phosphotyrosine]” here?
The value was 6.4 fold.

What about the “Tb^3+ binding in the presence of competing metals” value ([1]; in the presence of 100 μM Ca^2+ and 2 mM Mg^2+) of the same substance?
The value was “identical”.

What about the Kd ([1]; peptide-Tb^3+ complex, 2 μM peptide with 2 mM Mg^2+ and 100 μM Ca^2+) of the same substance?
Its Kd is 30 µM.

What about the Kd ([1]; peptide-Tb^3+ complex, 2 μM peptide, 5 mM HEPES (pH 7.8), 100 mM NaCl) of the same substance?
The Kd was 32 µM.

And the Kd [1, 4]?
The Kd was 54 ± 9 µM.

What about the “fold greater Tb^3+ affinity than the non-phosphorylated peptide” value ([1]; phosphorylated versus non-phosphorylated peptide) of the same substance?
Its value is 35 fold.

For “Ac-DKNADGWIDAApYK-NH2 [phosphorylated pKID-pTyr12]”, which Kd [1, 4] is on record?
Its Kd is 209 ± 32 µM.

For “Ac-DKNADGWIDAAYK-NH2 [non-phosphorylated pKID-pTyr12, control peptide with Tyr at residue 12]”, which Kd [1, 4] is on record?
Its Kd is 6470 µM.

With “Ac-DKNADGWIDAAAAKpYAK-NH2 [phosphorylated pKID-pTyr15a]” as the substance, how does the “fold greater luminescence of phosphorylated than non-phosphorylated peptide” value ([2]; 80 μM Tb^3+) read?
The value was 17.6 fold.

And the Kd [1, 4]?
Its Kd is 217 ± 21 µM.

With “Ac-DKNADGWIDAYAK-NH2 [non-phosphorylated pKID-pTyr11, model tyrosine kinase-inducible domain peptide, Tyr at residue 11]” as the substance, how does the Kd [1, 4] read?
The Kd was 1900 ± 280 µM.
